# Results taken from patent US5712151A, “Antifungal agent” (Merck & Co., Inc., priority 1996, dated 1998).
# How the values were obtained:
# Format in all cases: cell-based
# [1] = tested on: Cryptococcus neoformans (MY2061); assay: broth microdilution assay (MIC/MFC), Cryptococcus neoformans (MY2061); details: 48 hours, 35°-37° C., read-out: Minimum Inhibitory Concentration (MIC)
# Experimental: (§1) In the microbroth dilution assay, microorganisms were selected by streaking a yeast culture on Sabouraud dextrose agar (SDA) incubating for 24-48 hours at 35°-37° C., thereafter selected 3 to 5 characteristic colonies and transferring to a fresh plate and incubating under similar conditions. From the regrowth, 3 to 5 colonies were selected and suspended in 10 milliliters of YM broth (Difco) and incubated for 4 hours at 35°-37° C. shaking at 225 rpm. The 4 hour broth cultures were adjusted optically to 86% transmission resulting in a concentration of 1-5×10^6 cfu/ml which was further diluted 1:100 in YNBD (yeast nitrogen base with 1% dextrose) to obtain a concentration of 1-5×10^4 cfu/ml for use as inocula. […]
# (§2) The plates containing the diluted compounds were then inoculated with 75 μl/well of the appropriate microorganism and incubated for 48 hours at 35°-37° C. with MIC (minimum inhibitory concentration) determinations carried out after 24 hours of incubation (except Cryptococcus strains which are read at 48 hours). […]
# (§3) After recording MICs at 24 hours, the microtiter plates were shaken gently to resuspend the cells. […] For Cryptococcus neoformans, SDA plates were inoculated at 48 hours after recording MICs and incubated 48 hours before reading the MFC. […]
# Candida albicans (CA2) = assay: broth microdilution assay (MIC/MFC), Candida albicans (CA2)
# Experimental: as §1, §2, §3
# [2] = tested on: Candida albicans (CLY539); assay: broth microdilution assay (MIC/MFC), Candida albicans (CLY539)
# Experimental: as §1, §2, §3
# [3] = tested on: Cryptococcus neoformans (MY2062); assay: broth microdilution assay (MIC/MFC), Cryptococcus neoformans (MY2062); details: 48 hours
# Experimental: as §1, §2, §3
# [4] = tested on: Candida tropicalis (MY1124); assay: broth microdilution assay (MIC/MFC), Candida tropicalis (MY1124)
# Experimental: as §1, §2, §3
# [5] = tested on: Candida albicans (MY1055); assay: broth microdilution assay (MIC/MFC), Candida albicans (MY1055)
# Experimental: as §1, §2, §3
# [6] = tested on: Candida tropicalis (MY1012); assay: broth microdilution assay (MIC/MFC), Candida tropicalis (MY1012)
# Experimental: as §1, §2, §3
# [7] = tested on: Candida glabrata (MY1381); assay: broth microdilution assay (MIC/MFC), Candida glabrata (MY1381); details: Nakaseomyces glabratus
# Experimental: as §1, §2, §3
# [8] = tested on: Candida pseudotropicalis (MY2099); assay: broth microdilution assay (MIC/MFC), Candida pseudotropicalis (MY2099); details: Kluyveromyces marxianus
# Experimental: as §1, §2, §3
# [9] = tested on: Aspergillus fumigatus (MY4839); assay: broth microdilution assay (MIC), Aspergillus fumigatus (MY4839); details: read-out: Minimum Inhibitory Concentration (MIC)
# Experimental: (§4) The test compound was dissolved at […] in 10% DMSO and diluted 2× into the first well to achieve a concentration of 256 μg/ml at 5% DMSO in the first well. Compounds are subsequently serially diluted 2× and cell suspension is added to each well resulting in an additional 2× dilution of compound. 75 μl of said solution is delivered to each well in column 1 of a 96-well, U-bottomed microtiter plate. The compounds in column 1 were then serially diluted two-fold to yield concentrations from 64 μg/ml to 0.03 μg/ml.
# (§5) The plates containing the diluted compounds were then inoculated with 75 μl/well of the appropriate microorganism and incubated for 48 hours at 35°-37° C. with MIC (minimum inhibitory concentration) determinations carried out after 24 hours of incubation (except Cryptococcus strains which are read at 48 hours). Growth and sterility controls for each organism and sterility checks for the compounds also were carried out.
# Candida krusei = assay: broth microdilution assay (MIC/MFC), Candida krusei; details: Pichia kudriavzevii
# Experimental: as §1, §2, §3
# panel of fungi = assay: broth microdilution assay (MIC and MFC) against a panel of fungi; details: control compound amphotericin B
# Experimental: as §1, §2, §3
# [10] = tested on: filamentous fungi (Aspergillus flavus, Fusarium oxysporum, Ustilago zeae and the like); assay: agar plate inhibition zone test with filamentous fungi; details: methanol solutions on agar plates; 28° C. or 37° C., 24 hours
# Experimental: The compound is also useful for inhibiting the growth of filamentous fungi. Such use may be illustrated in the following tests with Aspergillus flavus, Fusarium oxysporum, Ustilago zeae and the like. Inocula for filamentous fungi are prepared by scraping the surface of stock plates maintained on potato dextrose agar with a moistened sterile dacron swab. The spores and mycelia are then suspended in 10 milliliters of sterile potato dextrose broth and adjusted to 70 percent transmission at 660 nm. The samples to be tested for production of antifungal agent are applied directly to the agar plates as methanol solutions. When the sample to be tested is crude broth, it may be centrifuged prior to application. The assay plates are then incubated at either 28° C. or 37° C. for 24 hours. Following incubation, the inhibition zones are measured. Growths are also noted as to appearance.
# [11] = tested on: Candida guillermondii (MY1019); assay: broth microdilution assay (MIC/MFC), Candida guillermondii (MY1019)
# Experimental: as §1, §2, §3
# [12] = tested on: Saccharomyces cerevisiae (MY2140); assay: broth microdilution assay (MIC/MFC), Saccharomyces cerevisiae (MY2140)
# Experimental: as §1, §2, §3
# [13] = tested on: Candida parapsilosis (MY1010); assay: broth microdilution assay (MIC/MFC), Candida parapsilosis (MY1010); details: Lodderomyces parapsilosis
# Experimental: as §1, §2, §3
# [14] = tested on: Aspergillus fumigatus (MY5668); assay: broth microdilution assay (MIC), Aspergillus fumigatus (MY5668); details: read-out: Minimum Inhibitory Concentration (MIC)
# Experimental: as §4, §5
# [15] = 24 hours, 35°-37° C., read-out: Minimum Inhibitory Concentration (MIC)
# [16] = no growth or ≤4 colonies on SDA, read-out: Minimum Fungicidal Concentration (MFC)
structure (smiles),measurement,setting,value
C=CC(CCCCC)C1=C(C(=O)C2C3C(C)CC(C(=O)OC)C(O)C3C(O)C2(O)C(=O)/C=C/C)C(=O)NC1=O (centres unmarked) [Compound I],MIC,[1],< 0.03 mg/L
same,MIC,Candida albicans (CA2); [15],0.125 mg/L
same,MFC,Candida albicans (CA2); [16],0.25 mg/L
same,MIC,[2]; [15],0.06 mg/L
same,MFC,[2]; [16],0.125 mg/L
same,MIC,"[3]; 35°-37° C., read-out: Minimum Inhibitory Concentration (MIC)",< 0.03 mg/L
same,MFC,[3]; [16],< 0.03 mg/L
same,MIC,[4]; [15],4 mg/L
same,MFC,[4]; [16],8 mg/L
same,MIC,[5]; [15],< 0.03 mg/L
same,MFC,[5]; [16],0.06 mg/L
same,MIC,[6]; [15],1 mg/L
same,MFC,[6]; [16],2 mg/L
same,MIC,[7]; [15],16 mg/L
same,MFC,[7]; [16],32 mg/L
same,MIC,[8]; [15],2 mg/L
same,MFC,[8]; [16],4 mg/L
same,MIC,[9],< 0.03 mg/L
same,MIC,Candida krusei; [15],0.06 mg/L
same,MFC,Candida krusei; [16],0.5 mg/L
same,effectiveness against a panel of fungi (MIC and MFC) relative to amphotericin B,panel of fungi,"effective at concentrations comparable to an established antifungal agent, amphotericin B"
same,inhibition of growth of filamentous fungi (inhibition zones),[10],effectively inhibit growth of the fungal organisms
same,MIC,[11]; [15],2 mg/L
same,MFC,[11]; [16],16 mg/L
same,MIC,"[12]; Saccharomyces cerevisiae (MY2140), 24 hours, 35°-37° C., read-out: Minimum Inhibitory Concentration (MIC)",4 mg/L
same,MFC,"[12]; Saccharomyces cerevisiae, read-out: Minimum Fungicidal Concentration (MFC)",0.5 mg/L
same,MIC,[13]; [15],< 0.03 mg/L
same,MFC,[13]; [16],< 0.03 mg/L
same,MIC,[14],1 mg/L
